According to PMC4183669 (Chemistry and physics of lipids, 2014):
Like-named read-outs stand apart in the source and are kept apart here. Peptide text beside a SMILES is read from it. * marks the point of attachment. X1 = CCCCCCCCCCCCCCCC(=O)OC[C@H](COP(=O)([O-])OCC[N+](C)(C)C)O*

What was measured:
[1] = target: bee-venom phospholipase A2 (Apis mellifera, UniProt P00630); assay type: biochemical
membrane fusion = conditions: ref Epand, 2003; cited from earlier work

bee-venom phospholipase A2, sequence (P00630 34-167 limits assumed): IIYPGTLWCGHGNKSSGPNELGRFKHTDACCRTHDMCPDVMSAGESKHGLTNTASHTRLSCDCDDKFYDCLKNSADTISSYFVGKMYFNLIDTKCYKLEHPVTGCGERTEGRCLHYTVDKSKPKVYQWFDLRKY

Row | Molecule | time to complete hydrolysis by PLA2 [1] [min] | time to complete hydrolysis by PLA2 ([1]; 40°C) [min] | time to complete hydrolysis by PLA2 ([1]; pH 8.5) [min] | hydrolysis by bee-venom PLA2 (result in words) [1] | antiviral action by inhibition of membrane fusion (membrane fusion)
1 | CCCCCCCCCCCCCCCC(=O)OC[C@H](COP(=O)([O-])OCC[N+](C)(C)C)OC(=O)CCCCCCCCCCCCCCC [DPPC, dipalmitoyl phosphatidylcholine, reference compound] | 10 | ≤ 90 | 10 | – | –
2 | CCCCCCCCCCCCCCCC(=O)OC[C@H](COP(=O)([O-])OCC[N+](C)(C)C)OC(=O)CNC(=O)CNC(=O)[C@@H]1CCCN1C(=O)CN.Cl [compound 10, 1-Palmitoyl-2-(gly-pro-gly-gly)-sn-glycero-3-phosphocholine hydrochloride] (H-GPGG-X1) | – | – | ≤ 90 | completely hydrolyzed | –
3 | CCCCCCCCCCCCCCCC(=O)OC[C@H](COP(=O)([O-])OCC[N+](C)(C)C)OC(=O)CNC(=O)[C@H](Cc1ccccc1)NC(=O)[C@@H](Cc1ccccc1)NC(=O)OCc1ccccc1 [compound 13, 1-Palmitoyl-2-(CBZ-D-phe-phe-gly)-sn-glycero-3-phosphocholine] | – | – | ≤ 90 | completely hydrolyzed | –
4 | CCCCCCCCCCCCCCCC(=O)OC[C@H](COP(=O)([O-])OCC[N+](C)(C)C)OC(=O)CNC(=O)OC(C)(C)C [compound 14, 1-palmitoyl-2-(N-BOC-glycyl)-sn-glycero-3-phosphocholine] | 20 | – | – | readily hydrolyzed | –
5 | carbobenzoxy-D-Phe-Phe-Gly [compound 5] | – | – | – | – | blocking viral infection by inhibiting membrane fusion
